# Experimental data taken from publication PMC4569848 (Nature Communications, 2015).
# “Also recorded” adds a separate entry of the source. No end group written: not given here. *: point of attachment. sulfate = O=S(=O)(O)*
# Columns and labels:
# Type in all cases: cell-based
# β2AR [1] = system: β2AR
# Protocol: To examine the effects of β-arrestin-1 mutants on ISO-induced β2AR/β-arrestin-1 complex formation, the co-immunoprecipitation experiment was performed[61][62]. In detail, HEK293 cells were co-transfected with Flag-β2AR and β-arrestin-1-YFP mutants. Twenty-four hours after transfection, the cells were starved for 4 h and then stimulated with ISO (10 μM) for 10 min. The cell lysates were subjected to immunoprecipitation using anti-FLAG beads incubated overnight at 4 °C. Immune complexes were analysed by western blotting with specific antibodies. The associated β-arrestin 1-YFP was detected using an anti-YFP antibody.
# β2AR [2] = assay: Western blot of SRC activation (phospho-SRC 416); conditions: HEK293 cells, ISO 1, 5 and 15 min
# Protocol: (b) A representative western blotting is shown for the effects of knockdown of specific GRKs in β2-AR-mediated proto-oncogene tyrosine-protein kinase (SRC) activation. Left panel: HEK293 cells that were transiently transfected with Flag-β2-AR were stimulated with ISO for 1, 5 and 15 min. To examine the roles of GRK2 and GRK6 in β2-AR-mediated SRC activation, siRNAs that were selective for specific GRKs were transfected into the cells. A western blot representative of at least three independent experiments is shown on the left. Right panel: western blot signals of phospho-SRC 416 (a) were quantified using densitometry and are expressed as fold change versus basal level. […] (a,b) At least three independent experiments were performed. #P<0.05, ISO-stimulated cells are compared with unstimulated cells. *P<0.05; **P<0.01; ***P<0.005; GRK siRNA-treated cells are compared with control siRNA-treated cells.
# GRK2 or GRK6 expression was silenced in HEK 293 cells using a specific small interfering RNA (siRNA) duplex. […]
# To examine the roles of GRK2 and GRK6 in β2-AR-mediated SRC activation, selective siRNA towards specific GRK and Flag-β2AR plasmids were co-transfected into HEK-293 cells. […] Lysate protein concentrations were determined using the Bradford protein assay. […] SRC-416 phosphorylation was detected using a specific antibody.
# β2AR [3] = assay: Co-IP β-arrestin-1/SRC downstream of β2AR; conditions: HEK293, 10 μM ISO, 15 min, β-arrestin-1 R7A (site 5) vs wild type
# Text: (§3) (a) The phospho-binding pattern of β-arrestin-1 determines selective arrestin functions downstream of β2AR in cells. […] The β-arrestin-1 was immunoprecipitated by HA-antibody-conjugated agarose and the formation of the β-arrestin-1/clathrin or β-arrestin-1/SRC was detected by specific clathrin or SRC antibodies. […] (a–c) Representative western blottings from at least three experiments are shown on the left and the statistics from at least three independent experiments are shown on the right. *P<0.05, **P<0.01; the effects of mutants were compared with the wild type.
# (§4) To examine the effects of β-arrestin-1 mutants on ISO, CCK-8s or somatostatin induced clathrin/β-arrestin-1 or SRC/β-arrestin-1 complex formation downstream of β2AR, CCKAR and SSTR2; HEK293 cells were co-transfected with Flag-β2AR/HA-β-arrestin-1, Flag-CCKAR/HA-β-arrestin-1 or Flag-SSTR2/HA-β-arrestin-1, respectively. Different HA-β-arrestin-1 mutations were used to detect the contribution of the phosphate-binding sites of β-arrestin-1 during the arrestin/clathrin or arrestin/SRC complex formatin. […] Immune complexes were analysed by western blotting with specific antibody towards clathrin or pSRC416, respectively.Representative western blots from at least three experiments are shown in Fig. 8.
# β2AR [4] = assay: Co-IP β-arrestin-1/clathrin downstream of β2AR; conditions: HEK293, 10 μM ISO, 15 min, β-arrestin-1 R25A (site 4) vs wild type
# Text: as §3, §4
# β2AR [5] = assay: Intramolecular BRET of Luc-β-arrestin-1-YFP (arrestin conformational change); conditions: HEK293 cells, 10 μM ISO, 10 min
# Protocol: (a) Activation of β2-AR-induced conformational changes in β-arrestin-1 as measured using intramolecular BRET. Plasmids encoding a β-arrestin-1 BRET biosensor (Luc-β-arrestin-1-YFP) and Flag-β2-AR were transiently co-transfected in HEK293 cells. After starvation, the cells were stimulated with ISO (10 μM) for 10 min. The effects of GRK phosphorylation of β2-AR on ISO-induced β-arrestin-1 conformational change were probed using siRNA-mediated GRK knockdown.
# The pcDNA3.0-Flag-β2AR (Flag-β2AR), β-arrestin-1-YFP, pcDNA3.1-Luc-β-arrestin-2-YFP and pCDNA3.1-Clathrin constructs were generous gifts from Dr Lefkowitz at Duke University[21][32]. […] To monitor the β-arrestin-1 conformational change, the BRET sensor for β-arrestin-1 (pcDNA3.1-Luc-β-arrestin-1-YFP) was created by in-Fusion of the β-arrestin-1-YFP plasmid with the pcDNA3.1-Luc-β-arrestin-2-YFP construct[57][58]. […] All of the constructs and mutations were verified by DNA sequencing.
# HEK 293 cells were attained from ATCC and cultured at 37 °C and 5% CO2 in DMEM containing 10% (v/v) fetal bovine serum and penicillin–streptomycin (5,000 IU l^−1). GRK2 or GRK6 expression was silenced in HEK 293 cells using a specific small interfering RNA (siRNA) duplex.
# CCKAR [6] = assay: Co-IP β-arrestin-1/SRC downstream of CCKAR; conditions: HEK293, 2 μM CCK-8s, 15 min
# Protocol: (§1) Figure 8 Phospho-pattern-selective mechanisms of specific arrestin functions are common for at least a subset of GPCRs. (a) The phospho-binding pattern of β-arrestin-1 determines selective arrestin functions downstream of β2AR in cells. HEK293 cells were co-transfected with Flag-β2AR and wild-type HA-β-arrestin-1 or specific phosphate-binding site mutants (R25A for site 4 and R7A for site 5), then stimulated with 10 μM isoproterenol (ISO) for 15 min. The β-arrestin-1 was immunoprecipitated by HA-antibody-conjugated agarose and the formation of the β-arrestin-1/clathrin or β-arrestin-1/SRC was detected by specific clathrin or SRC antibodies. […] (b,c) The phospho-binding pattern of β-arrestin-1 determines selective arrestin interaction with clathrin or SRC downstream of somatostatin receptor 2 (SSTR2, Fig. 4c) and cholecystokinin A receptor (CCKAR, Fig. 4d). […]
# (§2) To examine the effects of β-arrestin-1 mutants on ISO, CCK-8s or somatostatin induced clathrin/β-arrestin-1 or SRC/β-arrestin-1 complex formation downstream of β2AR, CCKAR and SSTR2; HEK293 cells were co-transfected with Flag-β2AR/HA-β-arrestin-1, Flag-CCKAR/HA-β-arrestin-1 or Flag-SSTR2/HA-β-arrestin-1, respectively. […] Immune complexes were analysed by western blotting with specific antibody towards clathrin or pSRC416, respectively.Representative western blots from at least three experiments are shown in Fig. 8.
# CCKAR [7] = assay: Co-IP β-arrestin-1/clathrin downstream of CCKAR; conditions: HEK293, 2 μM CCK-8s
# Protocol: as §1, §2
# SSTR2 [8] = assay: Co-IP β-arrestin-1/SRC downstream of SSTR2; conditions: HEK293, 1 μM somatostatin
# Protocol: as §1, §2
# SSTR2 [9] = assay: Co-IP β-arrestin-1/clathrin downstream of SSTR2; conditions: HEK293, 1 μM somatostatin
# Protocol: as §1, §2
molecule,measurement,setting,value
"CC(C)NCC(O)c1ccc(O)c(O)c1 (stereo not drawn) [ISO, isoproterenol]",β2AR/β-arrestin-1 complex formation with β-arrestin-1 mutants,β2AR [1],All of the tested β-arrestin-1 mutants bound to β2AR after ISO stimulation
same,"SRC activation, role of GRK2 (knockdown)",β2AR [2]; GRK2 siRNA,GRK2 is a negative regulator of β2-AR-induced SRC activation
same,"SRC activation, role of GRK6 (knockdown)",β2AR [2]; GRK6 siRNA,GRK6 is required for SRC activation downstream of β2-AR activation
same,"β-arrestin-1/SRC complex formation, R7A",β2AR [3],specifically eliminated ISO-induced β-arrestin-1/SRC association; also recorded: the ISO-induced β-arrestin-1/SRC complex formation
same,"β-arrestin-1/clathrin complex formation, R25A",β2AR [4],selectively impaired β-arrestin-1/clathrin interaction downstream of β2AR activation; also recorded: selectively disrupted the ISO-induced β-arrestin-1/clathrin complex formation
same,BRET signal of Rluc-β-arrestin-1-YFP,β2AR [5]; Flag-β2AR,significantly increased the BRET signal
same,"BRET signal of Rluc-β-arrestin-1-YFP, GRK2 knockdown",β2AR [5]; GRK2 siRNA,significantly reduced by the knockdown of either GRK2 or GRK6
same,"BRET signal of Rluc-β-arrestin-1-YFP, GRK6 knockdown",β2AR [5]; GRK6 siRNA,significantly reduced by the knockdown of either GRK2 or GRK6
"CCK-8s: CCKAR agonist, 2 μM (DY(sulfate)MGWMDF; ends and bridges not checked; UniProt P06307 96-103, looked up)",β-arrestin-1/SRC recruitment,CCKAR [6],only promoted β-arrestin-1/clathrin interaction
same,β-arrestin-1/clathrin interaction,CCKAR [7]; 15 min,only promoted β-arrestin-1/clathrin interaction
same,"β-arrestin-1/clathrin interaction, R25A",CCKAR [7]; β-arrestin-1 R25A vs wild type,selectively disrupted β-arrestin-1/clathrin interaction
somatostatin,β-arrestin-1/SRC recruitment,SSTR2 [8]; 15 min,promoted both clathrin and SRC recruitment for β-arrestin-1
same,"β-arrestin-1/SRC complex formation, R7A",SSTR2 [8]; β-arrestin-1 R7A vs wild type,impaired the β-arrestin-1/SRC complex formation
same,β-arrestin-1/clathrin recruitment,SSTR2 [9]; 15 min,promoted both clathrin and SRC recruitment for β-arrestin-1
same,"β-arrestin-1/clathrin interaction, R25A",SSTR2 [9]; β-arrestin-1 R25A vs wild type,selectively disrupted β-arrestin-1/clathrin interaction
